Source: patent US20240392241A1, “METHOD FOR PRODUCING CELL MASS INCLUDING PITUITARY TISSUE AND CELL MASS” (SUMITOMO CHEMICAL COMPANY, LIMITED, priority 2021, published 2024)
Ends that are not written are not given here.

B1: BMP4: BMP signal transduction pathway activating substance (protein, UniProt P12644 293-408, looked up)
Bone morphogenetic protein 4: SPKHHSQRARKKNKNCRRHSLYVDFSDVGWNDWIVAPPGYQAFYCHGDCPFPLADHLNSTNHAIVQTLVNSVNSSIPKACCVPTELSAISMLYLDEYDKVVLKNYQEMVVEGCGCR

What was measured:
Assay type in all cases: cell-based
[1] = system: cell aggregates containing pituitary tissue from human ES cells (KhES-1 strain); assay: ACTH stimulation/suppression test by CRH or dexamethasone in cell aggregates containing pituitary tissue (Example 14); details: 24 hr, cell aggregates on day 103
Protocol: Cell aggregates containing pituitary tissue were produced in the same manner as in Example 10, and ACTH secretory capacity was studied. 20 cell aggregates with different numbers of culture days after the start of suspension culturing were transferred to a 10 cm suspension culture dish containing 10 mL of serum-free medium supplemented with 20% KSR, and after culturing for 3-4 days at 37° C., the culture supernatant was recovered. The ACTH concentration in the recovered culture supernatant was measured by the ELISA method used in clinical testing (testing outsourced to SRL, Ltd.). As a result, ACTH secretion was observed from day 29 after the start of suspension culturing (23 pg/mL), and the amount of ACTH secretion increased remarkably as the number of days of culture increased (FIG. 17A).
Then, it was studied whether an increase in ACTH secretion by CRH and suppression of ACTH secretion by glucocorticoid were observed. Specifically, 20 cell aggregates on day 103 after the start of suspension culturing were transferred to a 10 cm suspension culture dish containing 10 mL of serum-free medium supplemented with 20% KSR, and after culturing for 24 hr under conditions of 37° C., […], the culture supernatant was recovered. […] The ACTH concentration in the recovered culture supernatant was measured as described above. […]

[2] = system: human ES cells (KhES-1 strain); assay: Concentration of IWP2, BMP4 and SAG, ACTH concentration in culture medium (Reference Example 3); details: combination: low (IWP2 0.5 μM, BMP4 0.5 nM, SAG 700 nM) vs high (IWP2 2 μM, BMP4 5 nM, SAG 2 μM); days 61-250
Protocol: Then, for the purpose of examining the optimal concentrations of IWP2, BMP4, and SAG to be added in each step, two groups of a high concentration group (IWP2; 2 μM, BMP4; 5 nM, SAG; 2 μM) and a low concentration group (IWP2; 0.5 μM, BMP4; 0.5 nM, SAG; 700 nM) were established, and a comparative study was conducted using the ACTH concentration in the culture medium on days 61, 103, 152, 201, and 250 of differentiation induction as an indicator. Using human ES cells (KhES-1 strain) and according to step shown in FIG. 9A, a cell population including cells that constitute pituitary tissue was produced. Using the method described in Example 4, the concentration of ACTH in the medium was measured.

[3] = system: human ES cells (RAX::Venus knock-in KhES-1 strain); assay: Addition period of IWP2, SB431542 and BMP4, immunostaining of PITX1, LHX3, E-cadherin on day 29 (Reference Example 2); details: IWP2 (2 μM) and SB431542 (1 μM) added day 0 to day 29 and BMP4 (5 nM) day 2 to day 6, vs other addition periods
Protocol: After performing step a, suspension culturing was performed in a medium containing a Wnt signal inhibitor IWP2 (2 μM) and a TGFβ signal inhibitor SB431542 (1 μM) in addition to BMP4 (5 nM) and SAG (100 nM (step (1)) or 2 μM (step (2)). IWP2 and SB431542 were added during the period from day 0 to day 6 after the start of suspension culturing (FIG. 8B-1), from day 0 to day 12 after the start of suspension culturing (FIG. 8B-2), or from day 0 to day 29 after the start of suspension culturing (FIG. 8B-3). BMP4 was added during the period from day 2 to day 6 after the start of suspension culturing (upper panel of each of FIGS. 8B-1 to -3) or from day 2 to day 18 after the start of suspension culturing (lower panel of each of FIGS. 8B-1 to -3). Using cell aggregates on day 29 after the start of suspension culturing, cryosections were prepared in the same manner as in Example 3. These cryosections were subjected to immunostaining using PITX1 (anti-Pitx1 antibody, homemade) and antibody against epithelial cell marker E-cadherin (manufactured by Takara Bio Inc.). As a result, it was confirmed that the outside of the aggregate was a nonneural epithelial tissue that was positive for PITX1 and E-cadherin, and the inside was a neural epithelial tissue that was positive for RAX::Venus (FIGS. 8B-1 to -3).
The scale bar at the bottom right of FIGS. 8B-1 to -3 indicates 200 μm.

[4] = system: human iPS cell line 1231A3; assay: Effect of substance reducing oxidative stress on pituitary organoid production, bright field observation (Example 6); details: 1 mM from day 10; day 30 of differentiation induction
[5] = system: human iPS cells (201B7 strain); assay: SAG addition period and ACTH secretion capacity of cell aggregates (Example 9); details: stopping SAG treatment 30 days after start of differentiation induction vs continued SAG treatment
Protocol: Using human iPS cells (201B7 strain) and according to the steps shown in FIG. 12A, cell aggregates were produced. Regarding the SAG treatment period, two groups of a group in which SAG is added from immediately after the start of differentiation induction until day 30, and a group in which SAG is added from immediately after the start of differentiation induction and after day 30 (until day 61, until day 103, and until day 131) were set, and the ACTH secretion capacity was compared. ACTH was measured by a method similar to that in Example 4.

[6] = system: human iPS cells (1231A3 strain); assay: Timing of BMP4 addition under JNK inhibitor addition conditions, oblique illumination observation (Example 17); details: BMP4 added after 24 hr (day 1) vs about 48 hr (day 2); JNK inhibitor present; day 28
Protocol: In Example 17, a cell population containing cells constituting pituitary tissue was produced according to the steps shown in FIG. 20A. Specifically, human iPS cells (1231A3 strain, obtained from RIKEN) were cultured under feeder-free conditions according to the method described in Scientific Reports, 4, 3594 (2014). As the feeder-free medium, StemFit medium was used and, as the feeder-free scaffold, Laminin 511-E8 was used.
Differentiation induction was performed under the same conditions as in Example 1, except that the addition conditions of BMP4 and the final concentration of IWP-2 were changed to 1 μM. As a condition for adding BMP4, step (2) was performed about 24 hr (day 1) and about 48 hr (day 2) after the start of differentiation induction.
On day 28 after the start of suspension culturing, oblique illumination observation was performed using an inverted fluorescence microscope (BIOREVO BZ-X800, manufactured by Keyence Corporation) (FIG. 20B). As a result, pituitary organoid with placode-like pituitary tissue observed as a thick, highly transparent epithelium on the surface of the cell mass was formed, under both BMP4 addition conditions of about 24 hr (day 1) and about 48 hr (day 2) after the start of differentiation induction. […]

Molecule	ACTH concentration in the culture medium, low concentration group vs high concentration group [2]	formation of PITX1-positive and E-cadherin-positive nonneural epithelial tissue [3]	also measured
C[C@@H]1C[C@H]2[C@@H]3CCC4=CC(=O)C=C[C@]4(C)[C@@]3(F)[C@@H](O)C[C@]2(C)[C@@]1(O)C(=O)CO [DX, dexamethasone]			reduction of the amount of ACTH secretion ([1]; 500 ng/mL): about 40%
Cc1ccc2nc(NC(=O)CSc3nc4c(c(=O)n3-c3ccccc3)SCC4)sc2c1 [IWP2, N-(6-Methyl-2-benzothiazolyl)-2-[(3,4,6,7-tetrahydro-4-oxo-3-phenylthieno[3,2-d]pyrimidin-2-yl)thio]acetamide]	higher	highest probability	
CC(=O)N[C@@H](CS)C(=O)O [NAC, N-acetylcysteine]			cell masses smaller in diameter than in the non-addition conditions [4]: about 50 μm; proliferation of unintended cells [4]: suppressed
CNC1CCC(N(Cc2cccc(-c3ccncc3)c2)C(=O)c2sc3ccccc3c2Cl)CC1 (stereo not drawn) [SAG, N-Methyl-N′-(3-pyridinylbenzyl)-N′-(3-chlorobenzo[b]thiophene-2-carbonyl)-1,4-diaminocyclohexane]	higher		ACTH secretion capacity [5]: improved
NC(=O)c1ccc(-c2nc(-c3ccc4c(c3)OCO4)c(-c3ccccn3)[nH]2)cc1 [SB431542, 4-[4-(3,4-Methylenedioxyphenyl)-5-(2-pyridyl)-1H-imidazol-2-yl]benzamide]		highest probability	
CRH: CRH (manufactured by Nipro ES Pharma) used to stimulate ACTH secretion (SEEPPISLDLTFHLLREVLEMARAEQLAQQAHSNRKLMEII; ends and bridges not checked; UniProt P06850 154-194, looked up)			increase of ACTH secretion amount ([1]; 5 μg/mL): about 3 times
B1	higher	highest probability	size of the pituitary organoids formed [6]: more uniform
